Assay results taken from patent US9410152B2, “Use of microrna molecules to influence skin pigmentation” (CHANEL PARFUMS BEAUTE, priority 2011, dated 2016).
“Also recorded” adds a separate entry of the source.

Key:
Type in all cases: cell-based, human
MNT-1 cells [1] = test: Measurement of the relative melanin concentration (absorbance at 470 nm of protein lysates); conditions: 50 nM mimetic, day 12, relative to transfection control cel-miR-239b (miCtrl), normalized to protein
Protocol: (§1) 4×10^5 MNT-1 cells were seeded per well in a 6-well plate (#353046, Falcon) on day-1. On day 0, the cells were transfected with 50 nM of mimetic of the miRNAs (hsa-mir-137 # C-300604-07-005, hsa-mir-7 # C-300547-05-0005, hsa-mir-330-5p # C-301082-01-0005, negative control # NC-002000-01-05, Dharmacon), using 5 μL of Lipofectamine 2000 (#1668-019, Invitrogen). On day 1, the medium was changed. On day 3, the cells were trypsinized and seeded at 4×10^5 cells per well. On day 4, the cells were transfected again with 50 nM of mimetic of the miRNAs (see day 0). On day 5, the medium was changed. On day 7, the cells were trypsinized and seeded at 4×10^5 cells per well. On day 8, the cells were transfected with 50 nM of mimetic of the miRNAs (see day 0). On day 9, the medium was changed. On day 10, the cells were trypsinized and divided into two (from one by six wells to two by six wells). On day 12, one six-well plate was used for lysis of the RNA and the other for lysis of the proteins. As positive control of depigmentation, MNT-1 cells were incubated with 3.5 mM of kojic acid (Sigma K3125-5G) for 12 days. The cells were distributed as described and the kojic acid was renewed with the medium every 4 days. The percentage inhibition of the kojic acid is of the order of 10%.
On day 12, the cells were washed in PBS twice and lysed in 75 μL/well of a 6-well dish of lysis buffer for the RIPA proteins. The protein lysates were transferred to 1.5-ml Eppendorf tubes and vortexed lightly to homogenize the solution before putting the tube on ice or for storage at −80° C. 2 μL of protein lysate was used for measuring the absorbance of the melanin at 470 nm using the NanoVue spectrophotometer (GE Healthcare). The protein lysate of the unpigmented XB2 keratinocytes was used as calibrator sample (reference=0). To detect the relative quantity of melanin, all the samples were compared with the transfection control sample (miCtrl). The absorbance at 470 nm of the sample miCtrl was fixed at 1 as reference. In addition, the melanin absorption at 470 nm was normalized taking into account the concentration of proteins of each sample relative to miCtrl.

MNT-1 cells [2] = test: Overall pigmentation levels (photographs of protein lysates on day 12); conditions: 50 nM mimetic, 12 days, relative to negative control, photographs not shown
Protocol: as §1, with “10%. […] The XB2 keratinocytes serve as control for the unpigmented cells. […] As positive control of depigmentation, the MNT-1 cells were treated with kojic acid.” for “10%.”

mRNA TYR = test: qRT-PCR mRNA expression of TYR; conditions: MNT-1 cells, 50 nM mimetic, day 12, relative to cel-miR-239b, ΔΔCt
Protocol: 4×10^5 MNT-1 cells were seeded per well in a 6-well plate (#353046, Falcon) on day-1. On day 0, the cells were transfected with 50 nM of mimetic of the miRNAs (hsa-mir-137 # C-300604-07-005, hsa-mir-7 # C-300547-05-0005, hsa-mir-330-5p # C-301082-01-0005, negative control # NC-002000-01-05, Dharmacon), using 5 μL of Lipofectamine 2000 (#1668-019, Invitrogen). On day 1, the medium was changed. On day 3, the cells were trypsinized and seeded at 4×10^5 cells per well. On day 4, the cells were transfected again with 50 nM of mimetic of the miRNAs (see day 0). On day 5, the medium was changed. On day 7, the cells were trypsinized and seeded at 4×10^5 cells per well. On day 8, the cells were transfected with 50 nM of mimetic of the miRNAs (see day 0). On day 9, the medium was changed. On day 10, the cells were trypsinized and divided into two (from one by six wells to two by six wells). On day 12, one six-well plate was used for lysis of the RNA and the other for lysis of the proteins. As positive control of depigmentation, MNT-1 cells were incubated with 3.5 mM of kojic acid (Sigma K3125-5G) for 12 days. The cells were distributed as described and the kojic acid was renewed with the medium every 4 days. The percentage inhibition of the kojic acid is of the order of 10%. 700 μL of Qiazol lysis buffer (Qiagen) was added per well of a six-well dish after washing the cells twice with PBS. The total RNA was isolated using the miRNeasy Mini kit (Qiagen) according to the manufacturer's protocol. The total RNA was eluted in 30 μl of water without RNAse. The concentration of RNA was measured using the NanoVue spectrophotometer (GE Healthcare). 1 μg of total RNA was reverse-transcribed using the MLV RT-Enzyme system (Invitrogen) in 60 μL of reaction to produce the corresponding cDNA. Real-time PCR was performed using the IQTM SYBR® Green supermix (Biorad) (final reaction volume of 25 μL: 23 μL of Mix Master and 2 μL of cDNA). The thermocycling conditions ([…], Biorad) were as follows: 95° C. for 90 s, and 40 cycles at 95° C. for 30 s, 60° C. for 60 s and 95° C. for 10 s. The concentrations of primers and the sequences are given in Table 5 below: The relative quantity was evaluated using the ΔΔCt comparative method. Briefly, this method compares the quantity of expression of the target gene relative to an endogenous control TBP, within a sample for normalizing the expression. Within a group of samples, a suitable sample is selected as the calibrator sample ([…]). Each sample is then compared with a designated reference to give the relative expression of the target gene relative to this reference sample.

Row | Substance | relative levels of melanin (absorbance at 470 nm) (MNT-1 cells [1]) | overall pigmentation levels (MNT-1 cells [2]) | levels of mRNA TYR (mRNA TYR) | overall pigmentation levels (MNT-1 cells [2]; listed as miR-7) | levels of mRNA TYR (mRNA TYR; listed as miR-7)
1 | hsa-miR-330-5p: mimetic of miRNA hsa-mir-330-5p (Dharmacon C-301082-01-0005); mature sequence 5'-UCUCUGGGCCUGUGUCUUAGGC-3' (SEQ ID NO: 1) (UCUCUGGGCCUGUGUCUUAGGC; mimic duplex, passenger strand not given here; listed as Homo sapiens) | reduction; also recorded: decrease in melanin | significant reduction | decreased; also recorded: appears to reduce |  | 
2 | hsa-miR-137: mimetic of miRNA hsa-mir-137 (Dharmacon C-300604-07-005); mature sequence SEQ ID NO: 3 (UUAUUGCUUAAGAAUACGCGUAG; commercial mimic, chemistry not given here; listed as Homo sapiens) | reduction; also recorded: decrease in melanin | significant reduction | decreased; also recorded: significantly reduced |  | 
3 | hsa-miR-7: mimetic of miRNA hsa-mir-7 (Dharmacon C-300547-05-0005); mature hsa-miR-7-5p sequence SEQ ID NO: 2 (UGGAAGACUAGUGAUUUUGUUGU; commercial mimic, chemistry not given here; listed as Homo sapiens) | slight increase | do not show a significant reduction | decreased | do not show any significant effect | appears to reduce
